Measurements reported in patent US20210371784A1, “CELL-CONTAINING VESSEL AND METHOD FOR PRODUCING NEURAL CELL-CONTAINING SPHEROID” (RICOH COMPANY, LTD., priority 2020, published 2021).

Test system: spheroids of human iPSC-derived neurons and human iPSC-derived astrocytes
Experiment: Calcium transient assay of neural cell-containing spheroids in the presence of a drug
Format: cell-based
Conditions: 4-AP final concentration 30 μM, 10-minute period immediately following the addition, spheroids cultured 7 weeks
Source text: Spheroids were produced using human iPSC-derived neurons and human iPSC-derived astrocytes, and the drug responsiveness was investigated. First, human iPSC-derived neurons (mixed neurons, manufactured by Elixirgen Scientific, Inc.) and human iPSC-derived astrocytes (Human iPS-derived Astrocytes (mature), manufactured by Xcell Science Inc.) were mixed so as to achieve cell numbers per well that satisfied the cell numbers indicated below in Table 3 for test numbers 3-1 and 3-2. Subsequently, each cell mixture was inoculated onto a spheroid production plate and cultured to produce a spheroid. […]
Subsequently, following culturing for 7 weeks, each of the spheroids was subjected to a calcium transient assay in the presence of a drug. […] In the calcium transient assays, excessive excitation of the neurons was detected as an increase in oscillation frequency or an elevated baseline.
Specifically, first, each spheroid was transferred to a measurement plate, a calcium-sensitive fluorescent dye (EarlyTox Cardiotoxicity Kit, manufactured by Molecular Devices, LLC) was added to the medium, and the mixture was incubated. Subsequently, 4-AP was added to the medium in an amount sufficient to achieve a final concentration of 30 μM, and fluorescence measurements were conducted at 0.6-second intervals for the 10-minute period immediately following the addition. […]

## Nc1ccncc1 [4-AP, 4-aminopyridine]
Test number 3-1, cell number ratio (neurons:astrocytes) 1:1
  change in the waveform of the oscillations (drug responsiveness): the expected type of change in the waveform of the oscillations was confirmed
Test number 3-2, cell number ratio (neurons:astrocytes) 4:1
  change in the waveform of the oscillations (drug responsiveness): the expected type of change in the waveform of the oscillations could not be confirmed
